Source: PMC9854762, “Antibiofilm and Anti-Quorum-Sensing Activities of Novel Pyrazole and Pyrazolo[1,5-a]pyrimidine Derivatives as Carbonic Anhydrase I and II Inhibitors: Design, Synthesis, Radiosterilization, and Molecular Docking Studies” (Antibiotics, 2023)
Values after ≈ are worked out from the molar mass of the structure shown. Values joined by “and” are separate entries in the source; they are usually repeats but may differ in a detail not shown here. Equal values may be shown once.

Key:
A. baumannii DH-243 [1] = assay: Agar well-diffusion assay; type: cell-based; settings: Acinetobacter baumannii, DH243; A. baumannii DH-243; 50 µL of 10 mM per well; read-out: Diameter of Inhibition Zones (AZOI)
Description: (§1) The synthesized compounds were initially screened for their in vitro antibacterial activity against the different Gram-positive and Gram-negative bacteria, tested using the agar well-diffusion assay. The turbidity of the bacterial suspensions was established to the 0.5 McFarland turbidity standard. The activity was performed on TS agar plates. The bacteria were spread on the surface of the agar plates, and 10 mm wells were screwed into the agar plates. The assay was performed under aseptic conditions. An aliquot of 50 µL of each tested compound (10 mM) was added to the wells, and the plates were incubated overnight at 37 °C. Both Erythromycin and Amikacin antibiotic disks were used as positive control, while DMSO solvent was used as a negative control in this study. The diameters of inhibition zones were measured and recorded in mm. A comparative study of the synthesized compounds was determined. The experiment was performed in triplicates.

E. coli DH-5987 [2] = assay: Agar well-diffusion assay; type: cell-based; settings: Escherichia coli, DH5987, 50 µL of 10 mM per well, read-out: Diameter of Inhibition Zones (AZOI)
Description: as §1

E. faecalis DH-5478 [3] = assay: Agar well-diffusion assay; type: cell-based; settings: Enterococcus faecalis, DH5478; E. faecalis DH-5478; 50 µL of 10 mM per well; read-out: Diameter of Inhibition Zones (AZOI)
Description: as §1

S. aureus DH-432 [4] = assay: Agar well-diffusion assay; type: cell-based; settings: Staphylococcus aureus, DH432; S. aureus DH-432; 50 µL of 10 mM per well; read-out: Diameter of Inhibition Zones (AZOI)
Description: as §1

S. pyogenes DH-3467 [5] = assay: Agar well-diffusion assay; type: cell-based; settings: Streptococcus pyogenes, DH3467; S. pyogenes DH-3467; 50 µL of 10 mM per well; read-out: Diameter of Inhibition Zones (AZOI)
Description: as §1

P. aeruginosa DH-5698 [6] = assay: Agar well-diffusion assay; type: cell-based, Pseudomonus aeruginosa; settings: Pseudomonas aeruginosa, DH5698; P. aeruginosa DH-5698; 50 µL of 10 mM per well; read-out: Diameter of Inhibition Zones (AZOI)
Description: as §1

E. faecalis DH-5478 [7] = assay: Broth microdilution MIC/MBC; type: cell-based, Enterococcus faecalis; settings: for MIC: Enterococcus faecalis, DH5478, 24 h, read-out: MIC (Mean ± SEM); for MBC/MIC: value in brackets
Description: (§2) The broth microdilution method was taken as a basis to detect the MICs of pyrazole compounds against tested clinical isolates, according to the Clinical Laboratory and Standards Institute guidelines. The broth cultures were used to prepare the bacterial inoculums, and the suspensions were adjusted to the standard 0.5 McFarland turbidity. Stock solutions of the synthesized pyrazoles were prepared in pure DMSO and further serially diluted with TS broth in the concentration range from 128 µg/mL to 0.0625 µg/mL. A well containing noninoculated TS broth, free of any antimicrobial agents, was also included to ensure the medium sterility, while Erythromycin and Amikacin served as positive controls. Bacterial growth was determined by adding 20 µL of 0.5% TTC (2,3,5-triphenyltetrazolium chloride) aqueous solution. […] All experiments were repeated three times. The bactericidal effect from each concentration of the pyrazole and pyrazolo[1,5-a]pyrimidine derivatives showing growth inhibition was further studied. For this study, a loopful of 5 µL was taken from each no-visible growth tube and streaked onto plates of TS agar.

S. aureus DH-432 [8] = assay: Broth microdilution MIC/MBC; type: cell-based, Staphylococcus aureus; settings: for MIC: Staphylococcus aureus, DH432, 24 h, read-out: MIC (Mean ± SEM); for MBC/MIC: value in brackets
Description: as §2

S. pyogenes DH-3467 [9] = assay: Broth microdilution MIC/MBC; type: cell-based, Streptococcus pyogenes; settings: for MIC: Streptococcus pyogenes, DH3467, 24 h, read-out: MIC (Mean ± SEM); for MBC/MIC: value in brackets
Description: as §2

A. baumannii DH-243 [10] = assay: Broth microdilution MIC/MBC; type: cell-based, Acinetobacter baumannii; settings: for MIC: Acinetobacter baumannii, DH243, 24 h, read-out: MIC (Mean ± SEM); for MBC/MIC: value in brackets
Description: as §2

E. coli DH-5987 [11] = assay: Broth microdilution MIC/MBC; type: cell-based, Escherichia coli; settings: E. coli DH-5987; for MBC/MIC: value in brackets; for MIC: Escherichia coli, DH5987, 24 h, read-out: MIC (Mean ± SEM)
Description: as §2

P. aeruginosa DH-5698 [12] = assay: Broth microdilution MIC/MBC; type: cell-based, Pseudomonus aeruginosa; settings: for MIC: Pseudomonas aeruginosa, DH5698, 24 h, read-out: MIC (Mean ± SEM); for MBC/MIC: value in brackets
Description: as §2

P. aeruginosa biofilm = assay: Crystal violet biofilm inhibition assay; type: cell-based; settings: compounds at their MICs, crystal violet OD570
Description: (§3) The microtiter plate method was used to evaluate the active pyrazoles’ inhibitory activities on the strong biofilm-forming bacterial strains. This method was carried out as described, with some modifications. The antibiofilm effects of tested pyrazoles are presented as a percentage change from untreated bacterial controls. Overnight cultures of micro-organisms in the TSB medium with 10% (wt/vol) glucose were prepared as 10^8 CFU/mL, and then 100 µL was dispensed into each test well. Then, 100 µL of different concentrations of compounds, at their MICs, were dispensed into each well. The negative control contained only TSB, whereas the positive control contained cell cultures without compound addition. The supernatant was decanted and each well gently rinsed three times with 300 µL of sterile distilled water and discarded after incubation at 37 °C for 48 h. The plates were dried with air for 40 min. They were stained with 0.1% (wt/vol) crystal violet at room temperature for 30 min and washed three times with sterile distilled water. Afterward, the crystal violet was solubilized in 95% ethanol, and the absorbance was read in a microplate reader (MicroplatePhotometer and Multiskan FC) at 570 nm. This test was performed in triplicate, and the mean was taken as an average of three readings. The percentage of biofilm inhibition was calculated according to Equation (1):(1) Biofilm eradication %=OD positivecontrol−OD sample /OD positive control×100

hCA-I = target: T1, hCA-I (Homo sapiens, UniProt P00915); assay: Carbonic anhydrase isoenzyme inhibition assay; type: biochemical; settings: for Ki: Lineweaver–Burk graphs
T1 construct: from tissue; host or cells: human erythrocytes (hemolysate)
Description: The purification of both human cytosolic CA isoforms was carried out as previously described, using a simple one-step procedure of Sepharose-4B-L-tyrosine-sulfanilamide affinity chromatography. […] The carbonic anhydrase isoenzymes’ activities were determined in accordance with the previous study. […] For the designation of the inhibition efficacy of each novel pyrazole and for the pyrazolo[1,5-a]pyrimidine derivatives on both hCA isoenzymes, an activity (%) graph was drawn. The IC50 values were obtained from activity (%) versus compounds plots. The Ki values were calculated using three concentrations for each derivative.

S. aureus biofilm = assay: Crystal violet biofilm inhibition assay; type: cell-based; settings: compounds at their MICs, crystal violet OD570
Description: as §3

T1 sequence (P00915 whole entry): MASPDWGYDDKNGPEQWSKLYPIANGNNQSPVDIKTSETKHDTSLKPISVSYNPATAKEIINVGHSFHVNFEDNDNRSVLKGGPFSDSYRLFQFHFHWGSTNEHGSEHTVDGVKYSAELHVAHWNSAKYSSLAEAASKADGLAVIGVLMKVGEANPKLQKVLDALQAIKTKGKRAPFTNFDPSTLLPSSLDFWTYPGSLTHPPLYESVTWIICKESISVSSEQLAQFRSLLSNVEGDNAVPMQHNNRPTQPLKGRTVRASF

Compound | zone of inhibition at 10000 µM (A. baumannii DH-243 [1]) | zone of inhibition at 10000 µM (E. coli DH-5987 [2]) | zone of inhibition at 10000 µM (E. faecalis DH-5478 [3]) | zone of inhibition at 10000 µM (S. aureus DH-432 [4]) | zone of inhibition at 10000 µM (S. pyogenes DH-3467 [5]) | zone of inhibition at 10000 µM (P. aeruginosa DH-5698 [6]) | MIC (E. faecalis DH-5478 [7]) | MBC/MIC (E. faecalis DH-5478 [7]) | MIC (S. aureus DH-432 [8]) | MBC/MIC (S. aureus DH-432 [8]) | MIC (S. pyogenes DH-3467 [9]) | MBC/MIC (S. pyogenes DH-3467 [9]) | MIC (A. baumannii DH-243 [10]) | MBC/MIC (A. baumannii DH-243 [10]) | MBC/MIC (E. coli DH-5987 [11]) | MIC (E. coli DH-5987 [11]) | MIC (P. aeruginosa DH-5698 [12]) | MBC/MIC (P. aeruginosa DH-5698 [12]) | Biofilm Eradication % (P. aeruginosa biofilm) | IC50 (hCA-I) | other results
CCOC(=O)c1ccc(N=Nc2c(N)n[nH]c2N)cc1 [Compound 3a, Ethyl 4-((3,5-diamino-1H-pyrazol-4-yl)diazenyl)benzoate] | 29.3 mm | 32 mm | 30.6 mm | 31.1 mm | 31.5 mm | 30.8 mm | 0.125 ± 0.1 µg/mL (≈ 0.456 µM) | 0.5 | 0.125 ± 0.3 µg/mL (≈ 0.456 µM) | 0.5 | 0.125 ± 0.3 µg/mL (≈ 0.456 µM) | 0.5 | 0.25 ± 0.2 µg/mL (≈ 0.911 µM) | 0.5 | 0.5 | 0.0625 ± 0.4 µg/mL (≈ 0.228 µM) | 0.125 ± 0.2 µg/mL (≈ 0.456 µM) | 0.5 | 88% and > 80% | 92.3 nM | Ki (hCA-I): 88.8 nM
CCOC(=O)c1ccc(N=Nc2c(N=Cc3ccc(N(C)C)cc3)n[nH]c2N)cc1 [Compound 5a, Ethyl 4-((5-amino-3-((4-(dimethylamino)benzylidene)amino)-1H-pyrazol-4-yl)diazenyl)benzoate] | 28 mm | 29.9 mm | 28.2 mm | 28.6 mm | 28.9 mm | 28.3 mm | 0.5 ± 0.2 µg/mL (≈ 1.23 µM) | 0.5 | 0.25 µg/mL (≈ 0.617 µM) | 0.5 | 0.5 ± 0.1 µg/mL (≈ 1.23 µM) | 0.5 | 0.5 ± 0.3 µg/mL (≈ 1.23 µM) | 0.5 | 0.5 | 0.25 µg/mL (≈ 0.617 µM) | 0.5 ± 0.1 µg/mL (≈ 1.23 µM) | 0.5 | 63% and 63 ± 0.52% | 138 nM | MIC (Mean ± SEM) (S. aureus DH-432 [8]; 24 h): 0.25 ± 0.2 µg/mL (≈ 0.617 µM); Biofilm Eradication % (S. aureus biofilm): 69% and 69 ± 0.24%; Ki (hCA-I): 176 nM
